From patent EP0181109B1, “N6-benzopyrano- and benzothiopyrano-adenosines” (WARNER-LAMBERT COMPANY, priority 1984, dated 1986)

What was measured:
spontaneous locomotion = experiment: Mouse Activity and Screen Test Procedure (MAST): locomotor activity in actophotometer; format: in vivo, Swiss-Webster male mice; details: one hour prior to testing
Experimental: (§1) Nine unfasted Swiss-Webster male mice weighing 20-30 g are equally divided into three groups for each drug dose to be tested. There is, data for each dose level was generated by three separate groups of three mice each.
(§2) A minimum of three dose levels (10, 30, and 100 mg/kg) are tested for each drug. Treatments are administered intraperitoneally one hour prior to testing. All dosages are calculated as parent compound and given in volumes of 10 ml/kg. Compounds are dissolved or suspended in 0.2% Methocel. Control animals are injected with Methocel.
The actophotometer consists of a cylindrical chamber whose center is occupied by another cylinder which contains the illumination for six photocells located on the perimeter of the chamber. Six light-beam interruptions equal one count. Locomotor activity is recorded by computer at ten minute intervals for 60 minutes.
Data: The data obtained from the screen test are expressed as percent of mice falling off the screen. Data derived from locomotor activity of drug treated mice are compared to the activity of vehicle treated animals and are expressed as percent inhibition of spontaneous locomotion. All percentages reported for inhibition of locomotion (LI) are based upon data accumulated for one hour. […] An overall dose rating is obtained by the following criteria:
LAD refers to the lowest dose at which an A rating is achieved. […] The compounds are identified in the Examples.

adenosine A1 receptor = target: T1, adenosine A1 receptor (Rattus norvegicus, UniProt P25099); experiment: Adenosine Receptor Binding - A1 Receptor Affinity (RBA 1), [3H]-CHA displacement; details: rat whole brain membranes, 1.0 nM [3H]-CHA, one hour at 25°C
T1 construct: Whole brain minus cerebellum and brainstem from male Long Evans rats (150-200 g) was homogenized; from tissue; host or cells: rat whole brain minus cerebellum and brainstem (membrane homogenate)
T1 sequence (P25099 1-326): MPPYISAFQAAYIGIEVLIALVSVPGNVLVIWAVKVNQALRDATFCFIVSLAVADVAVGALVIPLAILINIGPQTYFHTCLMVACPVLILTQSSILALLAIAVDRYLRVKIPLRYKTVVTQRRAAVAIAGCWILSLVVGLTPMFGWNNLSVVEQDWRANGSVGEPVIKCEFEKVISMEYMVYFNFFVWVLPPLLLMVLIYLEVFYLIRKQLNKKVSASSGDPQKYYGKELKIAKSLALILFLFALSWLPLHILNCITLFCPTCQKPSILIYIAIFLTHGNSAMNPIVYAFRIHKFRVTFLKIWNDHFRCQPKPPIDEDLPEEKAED
Experimental: Whole brain minus cerebellum and brainstem from male Long Evans rats (150-200 g) was homogenized in 30 volumes of ice-cold 0.05 M Tris-HCI buffer pH 7.7 using a Brinkman Polytron PT-10, (setting number 6 for 20 seconds) and centrifuged for ten minutes at 20,000 x g (Sorvall RC-2), 4°C. The supernatant was discarded, and the pellet was resuspended and centrifuged as before. The pellet was resuspended in 20 ml Tris-HCI buffer containing two International Units/ml of adenosine deaminase (Sigma Type III from calf intestinal mucosa), incubated at 37°C for 30 minutes, then subsequently at 0°C for ten minutes. The homogenate was again centrifuged, and the final pellet was resuspended in ice-cold 0.05 M Tris-HCI buffer pH 7.7 to a concentration of 20 mg/ml original wet tissue weight and used immediately.
Tissue homogenate (10 mg/ml) was incubated in 0.05 M Tris-HCI buffer pH 7.7 containing 1.0 nM [^3H]-N^6-cyclohexyladenosine (^3H]-CHA) with or without test agents in triplicate for one hour at 25°C. Incubation volume was 2 ml. Unbound [^3H]-CHA was separated by rapid filtration under reduced pressure through Whatman glass fiber (GF/B) filters. The filters were rinsed three times with 5 ml of ice cold 0.05 M Tris-HCI buffer pH 7.7. The radio-labele ligand retained on the filter was measured by liquid scintillation spectrophotometry after shaking the filters for one hour or longer on a mechanical shaker in 10 ml of Beckman Ready-Solv HP scintillation cocktail.
Nonspecific binding was defined as the binding which occurred in the presence of 1 mM theophylline. The concentration of test agent which inhibited 50% of the specific binding (IC50) was determined by nonlinear computer curve fit. The Scatchard plot was calculated by linear regression of the line obtained by plotting the amount of radioligand bound (pmoles/gram of tissue) versus
• bound radioligand • free radioligand Since the amount of radioligand bound was a small fraction of the total amount added, free radioligand was defined as the concentration (nM) of radioligand added to the incubation mixture. The Hill coefficient was calculated by linear regression of the line obtained by plotting the log of the bound radioligand vs the log of the • bound radioligand • Bmax - bound radioligand • The maximal number of binding sites (Bmax) was calculated from the Scatchard plot.

[1] = tested on: mice falling off the inverted screen; experiment: Mouse Activity and Screen Test Procedure (MAST): screen test (ST); format: in vivo, Swiss-Webster male mice; details: one hour postinjection, percent of mice falling off the screen
Excerpt: The compounds of the invention are new chemical substances which are useful as pharmaceutical agents for the treatment of psychoses. The antipsychotic activity of representative compounds of the invention was established by the Mouse Activity and Screen Test Procedure (MAST) described below.
as §1, §2
Testing: A two part testing procedure is started one hour postinjection. First, the screen test (ST) is performed (see Pharmac. Biochem. Behav. 6,351-353,1977). Briefly this test consists of placing mice on individual wire screens which are then rotated 180 degrees at the start of a 60 second observation period. The number of mice falling off the inverted screen is recorded.
Data: The data obtained from the screen test are expressed as percent of mice falling off the screen. Data derived from locomotor activity of drug treated mice are compared to the activity of vehicle treated animals and are expressed as percent inhibition of spontaneous locomotion. All percentages reported for inhibition of locomotion (LI) are based upon data accumulated for one hour. Both phases of testing are graded: A=60-100%; C=31-59%; and N=0-30%. An overall dose rating is obtained by the following criteria:
LAD refers to the lowest dose at which an A rating is achieved. […] Utilizing this procedure, an overall dose rating of A was obtained for the noted compound at the indicated dose. The compounds are identified in the Examples.

Row | SMILES | Inhibition of Mouse Locomotion Activity (spontaneous locomotion; 10 mg/kg intraperitoneally) [%] | Inhibition of Mouse Locomotion Activity (spontaneous locomotion; 30 mg/kg intraperitoneally) [%] | Inhibition of Mouse Locomotion Activity (spontaneous locomotion; 100 mg/kg intraperitoneally) [%] | IC50 (adenosine A1 receptor) [µM] | Screen Test Failure ([1]; 10 mg/kg intraperitoneally) [%] | Screen Test Failure ([1]; 30 mg/kg intraperitoneally) [%] | Screen Test Failure ([1]; 100 mg/kg intraperitoneally) [%] | Inhibition of Mouse Locomotion Activity (spontaneous locomotion; 3 mg/kg intraperitoneally) [%] | Screen Test Failure ([1]; 3 mg/kg intraperitoneally) [%]
1 | CC(C)(C)c1ccc2c(c1)OCC(Nc1ncnc3c1ncn3[C@@H]1O[C@H](CO)[C@@H](O)[C@H]1O)C2 (stereo partly shown) [Example 13, N^6-[7-t-Butyl-3-chromanylamino)adenosine] | 50 | 82 | 88 | 0.16 | 0 | 0 | 22 | – | –
2 | COc1cc(OC)c2c(c1)OC(C)(C)CC2Nc1ncnc2c1ncn2[C@@H]1O[C@H](CO)[C@@H](O)[C@H]1O (stereo partly shown) [Example 14] | 8 | 13 | 2 | 4.93 | 0 | 0 | 0 | – | –
3 | OC[C@H]1O[C@@H](n2cnc3c(NC4CCSc5ccccc54)ncnc32)[C@H](O)[C@@H]1O (stereo partly shown) [Example 15] | 95 | 97 | – | 0.0562 | 22 | 55 | – | 88 | 11
4 | O=S1(=O)CCC(Nc2ncnc3c2ncn3[C@@H]2O[C@H](CO)[C@@H](O)[C@H]2O)c2ccccc21 (stereo partly shown) [Example 16, N^6-[4-Benzothiopyran-1,1-dioxideamino]adenosine] | 69 | 98 | – | 0.622 | 22 | 55 | – | 15 | 0
